Data set [1] concerns Sonic Hedgehog (SHH) ligand expression in bladder cancer cells. Kind of data set: Sonic Hedgehog ligand expression in bladder cancer cells after chemotherapy. Type of data set: cell-based, human. Particulars: over time after chemotherapy. The text has this: Similar results showing increases in Hh ligand expression in response to chemotherapy have been found in other tumor cells. For example, chemotherapy increases in Sonic Hedgehog (SHH) ligand expression in bladder cancer cells are depicted in FIGS. 4A-4D.

A further data set concerns the target Pgp (Homo sapiens, UniProt P08183). Particulars: cited from earlier work.
The next data set relates to hedgehog pathway. Kind of data set: C3H10T1/2 alkaline phosphatase assay (Shh-dependent osteoblast differentiation). Type of data set: cell-based. Particulars: Mus musculus, C3H 10T1/2; sonic hedgehog 250 ng/ml; AP normalized to total protein; read-out: IC50, antagonist of the hedgehog pathway (AP activity). The source says:
Cancer cell killing by inhibition of a component of the hedgehog pathway can be ascertained using the following assay. C3H10T1/2 cells differentiate into osteoblasts when contacted with the sonic hedgehog peptide (Shh-N). Upon differentiation, these osteoblasts produce high levels of alkaline phosphatase (AP) which can be measured in an enzymatic assay (Nakamura et al., 1997 BBRC 237: 465). Compounds that block the differentiation of C3H10T1/2 into osteoblasts (a Shh dependent event) can therefore be identified by a reduction in AP production (van der Horst et al., 2003 Bone 33: 899). The assay details are described below. Additional assays to ascertain the activity of hedgehog inhibitors, including IPI-926, are described in US 2009/0181997 by Grayzel et al.; U.S. Ser. No. 61/327,373 and 61/331,365, filed on Apr. 23, 2010 and May 4, 2010, respectively; the entire contents of the aforesaid applications are incorporated herein by reference. […]
C3H10T1/2 cells were plated in 96 wells with a density of 8×10^3 cells/well. […] After incubating for 30 min at 37° C., the plates were read on an Envision plate reader at 405 nm. Total protein was quantified with a BCA protein assay kit from Pierce according to manufacturer's instructions. […]

Data set [2] relates to LuCaP35V (Castration Resistant) primary prostate cancer. Kind of data set: LuCaP35V castration resistant primary prostate cancer model. The conditions noted are these: docetaxel IV Q14D for 28 days, docetaxel+vehicle samples. Format: in vivo. The source says:
The effects of IPI-926 were examined following docetaxel chemotherapy in a model of castration resistant prostate cancer. Prostate cancer is known to be a highly desmoplastic cancer, and one that preferentially metastasizes to bone. Sonic hedgehog ligand is expressed in clinical specimens and primary xenograft models. […] FIG. 7 summarizes the effects of IPI-926 in LuCaP35V (Castration Resistant) primary prostate cancer model. Days of docetaxel and IPI-926 administration are indicated by the arrowheads at the indicated days post-implant. The following samples were tested: Vehicle control (administered orally once a day), 40 mg/kg of IPI-926 (administered orally once a day), docetaxel (administered intravenously Q14D for 28 days), or docetaxel (administered intravenously Q14D for 28 days) followed by 40 mg/kg of IPI-926, as shown in FIG. 7. […] Thus, IPI-926 can be useful as maintenance therapy in prostate cancer.

The subject of data set [3] is Ptch1+/-; p53-/- medulloblastoma. Particulars: cited from earlier work.

Structures can show the parent of a compound that is named as a salt.

Sequence of Pgp (P08183 whole entry): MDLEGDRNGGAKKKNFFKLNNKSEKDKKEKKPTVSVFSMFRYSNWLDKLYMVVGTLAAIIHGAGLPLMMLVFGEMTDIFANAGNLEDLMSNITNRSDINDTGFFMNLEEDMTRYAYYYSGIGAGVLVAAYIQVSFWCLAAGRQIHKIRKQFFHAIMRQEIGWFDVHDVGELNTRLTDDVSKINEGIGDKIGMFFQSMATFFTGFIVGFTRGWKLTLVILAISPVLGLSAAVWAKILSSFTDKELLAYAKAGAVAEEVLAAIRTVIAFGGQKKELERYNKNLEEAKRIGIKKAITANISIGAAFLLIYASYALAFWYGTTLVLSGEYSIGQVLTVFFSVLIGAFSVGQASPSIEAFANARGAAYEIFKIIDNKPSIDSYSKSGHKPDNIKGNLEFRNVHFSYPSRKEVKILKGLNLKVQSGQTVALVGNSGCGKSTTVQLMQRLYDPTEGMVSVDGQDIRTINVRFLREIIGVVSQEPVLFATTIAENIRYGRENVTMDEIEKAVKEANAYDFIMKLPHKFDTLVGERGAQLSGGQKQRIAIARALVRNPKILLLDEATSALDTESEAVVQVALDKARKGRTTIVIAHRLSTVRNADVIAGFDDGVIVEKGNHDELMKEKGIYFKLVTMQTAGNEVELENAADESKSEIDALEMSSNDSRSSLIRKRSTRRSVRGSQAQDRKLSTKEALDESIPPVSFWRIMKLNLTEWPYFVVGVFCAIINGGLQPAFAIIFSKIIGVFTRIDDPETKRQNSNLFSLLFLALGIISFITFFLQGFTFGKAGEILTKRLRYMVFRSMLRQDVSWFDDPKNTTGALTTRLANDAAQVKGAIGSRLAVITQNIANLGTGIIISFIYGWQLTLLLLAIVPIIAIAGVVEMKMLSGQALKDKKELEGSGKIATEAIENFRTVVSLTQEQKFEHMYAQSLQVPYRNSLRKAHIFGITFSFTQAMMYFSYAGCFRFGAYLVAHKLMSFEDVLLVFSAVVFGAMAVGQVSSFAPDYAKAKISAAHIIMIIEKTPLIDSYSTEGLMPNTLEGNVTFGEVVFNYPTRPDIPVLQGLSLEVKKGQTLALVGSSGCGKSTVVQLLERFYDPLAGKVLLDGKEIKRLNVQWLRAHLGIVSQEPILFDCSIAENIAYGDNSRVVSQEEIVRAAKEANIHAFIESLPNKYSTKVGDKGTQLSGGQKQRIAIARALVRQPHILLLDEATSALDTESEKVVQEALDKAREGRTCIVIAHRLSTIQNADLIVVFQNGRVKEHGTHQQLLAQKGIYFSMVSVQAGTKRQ

As to `COc1cccc2c1C(=O)c1c(O)c3c(c(O)c1C2=O)C[C@@](O)(C(=O)CO)C[C@@H]3O[C@H]1C[C@H](N)[C@H](O)[C@H](C)O1` [Doxorubicin], in data set [1], the “Sonic Hedgehog (SHH) ligand expression” value is reported as “increase in expression over time”. `CS(=O)(=O)c1ccc(C(=O)Nc2ccc(Cl)c(-c3ccccn3)c2)c(Cl)c1` [GDC-0449]: the Pgp substrate entry on Pgp is on record as “p-glycoprotein (Pgp) substrate”.

In the case of `Nc1ccn([C@@H]2O[C@H](CO)[C@@H](O)C2(F)F)c(=O)n1` [Gemcitabine], the “Sonic Hedgehog (SHH) ligand expression” value in data set [1] was “increase in expression over time”. In general, IC50 refers to the concentration needed to halve the response being measured. For the compound `CC1=C2C[C@H]3[C@@H](CC[C@@H]4C[C@H](NS(C)(=O)=O)CC[C@@]43C)[C@@H]2CC[C@@]2(C1)O[C@@H]1C[C@H](C)CN[C@H]1[C@H]2C` [IPI-926 (HCl salt)], the IC50 in the data set with hedgehog pathway is less than 20 nM. With `CC(=O)O[C@@]12CO[C@@H]1C[C@H](O)[C@@]1(C)C(=O)[C@H](O)C3=C(C)[C@@H](OC(=O)[C@H](O)[C@@H](NC(=O)OC(C)(C)C)c4ccccc4)C[C@@](O)([C@@H](OC(=O)c4ccccc4)[C@H]21)C3(C)C` [docetaxel, reference compound], in data set [2], the “tumor volume after cessation of docetaxel” value is recorded as “Tumor reoccurrence was detected”. On to HhAntag, for which the survival vs vehicle result in data set [3] (100 mg/kg, enrolled at 5 weeks of age) is “survival benefit”. In addition, in data set [3] (2 weeks of twice daily 20 mg/kg or 100 mg/kg, enrolled at 3 weeks of age), the tumor mass result is “substantial decrease in tumor mass”.
